Like-named read-outs stand apart in the source and are kept apart here. No end group written: not given here.
Columns and labels:
E. coli ATCC 25922 = assay type: cell-based, Escherichia coli
Method: (§1) To gain additional insight, we also compared the effects of physiological saline and human serum on the antibacterial activities of WW291-WW298 using both E. coli and S. aureus (Table 3). In our assays, salts and serum were present during the entire course of the experiment. […] Thus, WW295 and WW298 stand out in terms of activity robustness (bold in Table 3).
(§2) The antibacterial activity of peptides was evaluated using a standard broth microdilution protocol with minor modifications as previously described. In brief, logarithmic phase bacterial cultures (i.e., optical density at 600 nm ≈ 0.5) were diluted to OD600~0.001 and partitioned into a 96-well polystyrene microplate at 90 μL per well. After treatment with 10 μL of peptide solutions two-fold diluted to various concentrations, microplates were incubated at 37 °C overnight and read on a ChroMate 4300 Microplate Reader at 630 nm (GMI, Ramsey, MN). […] Minimal bactericidal concentration (MBC) was determined by plating the clear wells at MIC or above. The peptide concentration that caused no bacterial growth on the petri dish is MBC.

S. aureus USA300 = assay type: cell-based, Staphylococcus aureus
Method: as §2

E. coli K12 = assay type: cell-based, Escherichia coli
Method: (§3) The antimicrobial activity spectrum of the WW peptide series was performed on a panel of Gram-positive and -negative bacteria using the standard broth micro-dilution method with minor modifications as described. […] There was a small change in the case of Pseudomonas aeruginosa and Acinetobacter baumannii up to two-fold. Four-fold changes were found for Staphylococcus aureus, Staphylococcus epidermidis, Escherichia coli, and Bacillus subtilis. However, we observed over eight-fold MIC changes for Klebsiella pneumoniae and vancomycin-resistant enterococcus (VRE). […] We also observed more than eight-fold changes in minimal bacterial killing concentrations.
as §2

A. baumannii B28-16 = assay type: cell-based, Acinetobacter baumannii
Method: as §3, §2

chicken red blood cells = test: Hemolytic assay; assay type: cell-based
Method: (§4) Hemolytic assays of peptides were performed as previously described. Briefly, human red blood cells (hRBCs) obtained from UNMC Blood Bank, or chicken or porcine blood cells purchased from commercial sources as previously described, were washed three times with phosphate buffer saline (PBS) and diluted to a 2% solution (V/v). After peptide treatment, incubation at 37 °C for one hour, and centrifugation at 13,000 rpm, aliquots of the supernatant were carefully transferred to a fresh 96-well microplate. The amount of hemoglobin released was measured at 545 nm. The percent lysis was calculated by assuming 100% release when human blood cells were treated with 2% Triton X-100, and 0% release when incubated with PBS buffer. The peptide concentration that caused 50% lysis of hRBCs is defined as HC50.

human red blood cells = test: Hemolytic assay; assay type: cell-based
Method: as §4

Pig RBC = test: Hemolytic assay; assay type: cell-based
Method: as §4

[1] = system: monkey kidney Vero E6 cells; assay type: cell-based
Method: Peptides were assayed for potential in vitro toxicity against human keratinocytes (HaCaT) and THP-1 cells as previously described. THP-1 monocytes were differentiated into macrophages by adding 30 ng/mL of phorbol 12-myristate 13-acetate (PMA; Sigma-Aldrich) to RPMI 1640 supplemented with 10% fetal calf serum culture (FCS) medium for 16 h. Briefly, cells were seeded at a density of 3 × 10^4 per well in a tissue culture 96-well plate in DMEM/RPMI supplemented with 10% fetal bovine serum (FBS), and incubated at 37 °C in a 5% CO2 atmosphere for 24 h. African green monkey kidney Vero E6 cells were cultivated in EMEM in the same manner. Before antimicrobial treatment, wells were replaced with serum free media and treated with peptides at different concentrations for one hour. After incubation, the cells were washed and incubated with 100 μL of DMEM media containing 20 μL of 3-(4,5-dimethylthiazol-2-yl)-5-(3-carboxymethoxyphenyl)-2-(4-sulfophenyl)-2H-tetrazolium (MTS) reagent for two hours at 37 °C. […] Absorbance readings at 492 nm were taken using a ChroMate microplate reader (GMI, Ramsey, MN, USA).

B. subtilis 167 = assay type: cell-based, Bacillus subtilis
Method: as §3, §2

E. faecium VRE = assay type: cell-based
Method: as §3, §2

[2] = system: PMA differentiated THP-1 cells; test: MTS cytotoxicity assay; assay type: cell-based; details: PMA differentiated THP-1, serum free media, one hour treatment
Method: (§5) Peptides were assayed for potential in vitro toxicity against human keratinocytes (HaCaT) and THP-1 cells as previously described. THP-1 monocytes were differentiated into macrophages by adding 30 ng/mL of phorbol 12-myristate 13-acetate (PMA; Sigma-Aldrich) to RPMI 1640 supplemented with 10% fetal calf serum culture (FCS) medium for 16 h. Briefly, cells were seeded at a density of 3 × 10^4 per well in a tissue culture 96-well plate in DMEM/RPMI supplemented with 10% fetal bovine serum (FBS), and incubated at 37 °C in a 5% CO2 atmosphere for 24 h. African green monkey kidney Vero E6 cells were cultivated in EMEM in the same manner. Before antimicrobial treatment, wells were replaced with serum free media and treated with peptides at different concentrations for one hour. After incubation, the cells were washed and incubated with 100 μL of DMEM media containing 20 μL of 3-(4,5-dimethylthiazol-2-yl)-5-(3-carboxymethoxyphenyl)-2-(4-sulfophenyl)-2H-tetrazolium (MTS) reagent for two hours at 37 °C. The treatment time was one hour in the case of Vero E6 cells. Absorbance readings at 492 nm were taken using a ChroMate microplate reader (GMI, Ramsey, MN, USA).

[3] = system: human keratinocytes (HaCaT); test: MTS cytotoxicity assay; assay type: cell-based; details: serum free media, one hour treatment
Method: as §5

S. aureus Mu50 = assay type: cell-based, Staphylococcus aureus
Method: as §3, §2

P. aeruginosa PAO1 = assay type: cell-based, Pseudomonas aeruginosa
Method: as §3, §2

S. aureus USA300 LAC = assay type: cell-based, Staphylococcus aureus
Method: as §1, §2

[4] = 2% RBC in PBS, 37 °C, one hour, hemoglobin at 545 nm

Sequence | MIC, +150 mM NaCl (E. coli ATCC 25922; ATCC 25922) | MIC, +10% Human Serum (E. coli ATCC 25922; ATCC 25922) | MIC, TSB (E. coli ATCC 25922; ATCC 25922) | MBC, USA300 (S. aureus USA300; USA300) | Minimal Inhibitory Concentration (MIC), EC (E. coli K12; K12) | Minimal Inhibitory Concentration (MIC), AB (A. baumannii B28-16; B28-16) | Chicken RBC, concentration that caused 50% red blood cell lysis (HC50) (chicken red blood cells) | Human RBC, concentration that caused 50% red blood cell lysis (HC50) (human red blood cells; red cells of human) | Pig RBC, concentration that caused 50% red blood cell lysis (HC50) (Pig RBC) | Vero Cells, concentration that caused 50% cell death (LC50) [1] | Minimal Inhibitory Concentration (MIC), BS (B. subtilis 167; 167) | Minimal Inhibitory Concentration (MIC), VRE (E. faecium VRE; VRE) | THP-1, concentration that caused 50% cell death (LC50) [2] | HaCaT, concentration that caused 50% cell death (LC50) [3] | Minimal Inhibitory Concentration (MIC), SA (S. aureus Mu50; Mu50) | Minimal Inhibitory Concentration (MIC), PA (P. aeruginosa PAO1; PAO1) | MIC, +150 mM NaCl (S. aureus USA300 LAC; USA300) | MIC, +10% Human Serum (S. aureus USA300 LAC; USA300) | MIC, TSB (S. aureus USA300 LAC; USA300) | also measured
WWLRKIWW [WW292] | >25 µM | >25 µM | 12.5 µM | >25 µM | 25 µM | 12.5 µM | >100 µM | 175 µM | >100 µM | >100 µM | 12.5 µM | >50 µM | >100 µM | >100 µM | 12.5 µM | 25 µM | 6.2 µM | >25 µM | 6.2 µM | –
WLRKIWWW [WW293] | >25 µM | >25 µM | 12.5 µM | 25 µM | 12.5 to 25 µM | 12.5 µM | >100 µM | 224 µM | >100 µM | >100 µM | 12.5 µM | 50 µM | >100 µM | >100 µM | 12.5 µM | 50 µM | 6.2 µM | >25 µM | 6.2 µM | –
IWWWWLRK [WW297] | – | – | – | – | – | – | – | – | – | – | – | – | 38 µM | 100 µM | – | – | – | – | – | MIC, TSB (E. coli ATCC 25922; E. coli ATCC 25922, TSB): 12.5 µM; MIC, +150 mM NaCl (E. coli ATCC 25922; E. coli ATCC 25922, TSB +150 mM NaCl, present during entire experiment): 12.5 µM; MIC, +10% Human Serum (E. coli ATCC 25922; E. coli ATCC 25922, TSB +10% human serum, present during entire experiment): >25 µM; MBC, USA300 (S. aureus USA300; S. aureus USA300, minimal bactericidal concentration, plating clear wells at MIC or above): 12.5 µM; Minimal Inhibitory Concentration (MIC), EC (E. coli K12; E. coli K12, broth microdilution, 37 °C overnight): 12.5 to 25 µM; Minimal Inhibitory Concentration (MIC), AB (A. baumannii B28-16; A. baumannii B28-16, broth microdilution, 37 °C overnight): 6.25 to 12.5 µM; Chicken RBC, concentration that caused 50% red blood cell lysis (HC50) (chicken red blood cells; [4]): 100 µM; Human RBC, concentration that caused 50% red blood cell lysis (HC50) (human red blood cells; [4]): 134 µM; Pig RBC, concentration that caused 50% red blood cell lysis (HC50) (Pig RBC; [4]): 110 µM; Vero Cells, concentration that caused 50% cell death (LC50) ([1]; Vero E6, serum free media, one hour treatment, MTS assay): >100 µM; Minimal Inhibitory Concentration (MIC), BS (B. subtilis 167; B. subtilis 167, broth microdilution, 37 °C overnight): 12.5 µM; Minimal Inhibitory Concentration (MIC), VRE (E. faecium VRE; E. faecium VRE, broth microdilution, 37 °C overnight): 12.5 µM; Minimal Inhibitory Concentration (MIC), SA (S. aureus Mu50; S. aureus Mu50, broth microdilution, 37 °C overnight): 6.2 µM; Minimal Inhibitory Concentration (MIC), PA (P. aeruginosa PAO1; P. aeruginosa PAO1, broth microdilution, 37 °C overnight): 50 µM; MIC, TSB (S. aureus USA300 LAC; S. aureus USA300 LAC, TSB): 3.1 µM; MIC, +150 mM NaCl (S. aureus USA300 LAC; S. aureus USA300 LAC, TSB +150 mM NaCl, present during entire experiment): 3.1 µM; MIC, +10% Human Serum (S. aureus USA300 LAC; S. aureus USA300 LAC, TSB +10% human serum, present during entire experiment): 25 µM
LRKIWWWW [WW294] | 25 µM | >25 µM | 12.5 µM | 25 µM | 12.5 µM | 12.5 µM | >100 µM | 143 µM | >100 µM | >100 µM | 25 µM | 25 µM | >100 µM | >100 µM | 12.5 µM | 50 µM | 6.2 µM | 25 µM | 6.2 µM | –
